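How tested: cells in 96-well plates exposed to compound for 48 hours at five concentrations. The concentration for 50% growth inhibition is given as GI50.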 Activity calls are given as the source filed them. No stated cut-off is given here; in the data, active = GI50 up to about 1.1 µM and inactive = higher.

Test systems include M14; SF-268; SNB-19; OVCAR-4; HCT-15; HT-29; NCI-H460; RXF 393; LOX IMVI; KM12; CAKI-1; NCI-H23; UO-31; SR; SK-MEL-2; Malme-3M; NCI-H522.
What all share (test): growth of human tumour cells (NCI), 48 h

As to `CC1(C)CCC[C@@]2(C)C1CCC1(C)C(CCc3ccoc3)/C(=C/OS(=O)(=O)O)CCC12` (some centres not stated), the GI50 with M14 is 42.7 µM (inactive); in the experiment on SF-268 it was > 100 µM (inactive); in the experiment with SNB-19, > 100 µM (inactive); with OVCAR-4 it was 52.5 µM (inactive); with HCT-15 it was 49.5 µM; with HT-29, 40.9 µM (inactive). Moreover, the GI50 in the experiment with NCI-H460 is > 100 µM (inactive); in the experiment on RXF 393, 61.9 µM (inactive); in the experiment on LOX IMVI, > 100 µM (inactive); with KM12, > 100 µM (inactive); with CAKI-1, > 100 µM (inactive); with NCI-H23, 50.4 µM (inactive). Besides, the GI50 with UO-31 was 72.3 µM (inactive); with SR, 23.1 µM (inactive); in the experiment on SK-MEL-2, 58.5 µM (inactive); in the experiment on Malme-3M, > 100 µM (inactive).
For the compound `CCCc1c(C(=O)OCC)[nH]c(C(=O)CCC(=O)c2[nH]c(C(=O)OCC)c(CCC)c2C(=O)OCC)c1C(=O)OCC`, the GI50 in the experiment on M14 is > 100 µM (inactive); with SF-268, > 100 µM (inactive); in the experiment with SNB-19, > 100 µM (inactive); in the experiment with NCI-H522, > 100 µM (inactive); with OVCAR-4, 48.3 µM (inactive); with HCT-15, over 100 µM. Also, the GI50 is > 100 µM (inactive) in the experiment on HT-29; > 100 µM (inactive) with NCI-H460; 70.5 µM (inactive) in the experiment on RXF 393; > 100 µM (inactive) with LOX IMVI; > 100 µM (inactive) in the experiment on KM12; > 100 µM (inactive) with CAKI-1. Further, the GI50 is > 100 µM (inactive) in the experiment on NCI-H23; > 100 µM (inactive) in the experiment with UO-31; > 100 µM (inactive) in the experiment on SR; 68.9 µM (inactive) in the experiment with SK-MEL-2; > 100 µM (inactive) in the experiment with Malme-3M.
As to `CS/C(=N/C#N)NCCc1c[nH]c2ccccc12`, the GI50 with M14 was > 100 µM (inactive); with SF-268, > 100 µM (inactive); in the experiment with SNB-19, > 100 µM (inactive); in the experiment on OVCAR-4, > 100 µM (inactive); with HCT-15, over 100 µM; in the experiment on HT-29, 98.4 µM (inactive). Further, the GI50 with NCI-H460 was > 100 µM (inactive); in the experiment on RXF 393, > 100 µM (inactive); in the experiment on LOX IMVI it was > 100 µM (inactive); with KM12, > 100 µM (inactive); in the experiment on NCI-H23, > 100 µM (inactive); in the experiment with UO-31, 49 µM (inactive). Besides, the GI50 with SR is 60.3 µM (inactive).
`CC(=O)OCC1OC(n2cc(F)c(=O)[nH]c2=O)C(NC(=O)N(CCCl)N=O)C(OC(C)=O)C1OC(C)=O` (configuration not stated): the GI50 in the experiment with M14 was > 100 µM (inactive); in the experiment on SF-268 it was 17.3 µM (inactive); with SNB-19 it was > 100 µM (inactive); in the experiment on NCI-H522, > 100 µM (inactive); with OVCAR-4, > 100 µM (inactive); with HT-29, > 100 µM (inactive). In addition, the GI50 with NCI-H460 is 18.7 µM (inactive); in the experiment on LOX IMVI, 43.3 µM (inactive); with KM12 it was > 100 µM (inactive); in the experiment on CAKI-1 it was > 100 µM (inactive); in the experiment with NCI-H23, > 100 µM (inactive); in the experiment with UO-31, > 100 µM (inactive). The GI50 is 97.9 µM (inactive) with SR and > 100 µM (inactive) in the experiment with Malme-3M.
In the case of `Cc1nc(Nc2ccccc2)sc1C(=O)NNc1ccc([N+](=O)[O-])cc1[N+](=O)[O-]`, the GI50 in the experiment on M14 was 38.9 µM (inactive); in the experiment on SF-268, 75.5 µM (inactive); in the experiment on SNB-19 it was 47.1 µM (inactive); in the experiment on NCI-H522, 19.5 µM (inactive); with OVCAR-4 it was 29.6 µM (inactive); in the experiment with HCT-15, 26.2 µM. Also, the GI50 in the experiment with HT-29 is 35 µM (inactive); in the experiment on NCI-H460, 31.9 µM (inactive); in the experiment on RXF 393, 35.2 µM (inactive); in the experiment on LOX IMVI, 21.4 µM (inactive); in the experiment on KM12, 34.4 µM (inactive); with CAKI-1 it was 31.5 µM (inactive). The GI50 is 17.5 µM (inactive) in the experiment with NCI-H23; 24 µM (inactive) in the experiment on UO-31; 14.7 µM (inactive) in the experiment on SR; 38.5 µM (inactive) in the experiment on SK-MEL-2; 43.9 µM (inactive) with Malme-3M.
Take `CC(=O)Nc1cc2c(s1)CCC1CC(=O)NN=C21` (configuration not stated): the GI50 is > 100 µM (inactive) in the experiment with M14; > 100 µM (inactive) in the experiment with SF-268; > 100 µM (inactive) in the experiment on SNB-19; > 100 µM (inactive) in the experiment with NCI-H522; > 100 µM (inactive) in the experiment on OVCAR-4; over 100 µM in the experiment with HCT-15. Further, the GI50 in the experiment on HT-29, in the experiment on NCI-H460, in the experiment with RXF 393, in the experiment with LOX IMVI, in the experiment on KM12 and in the experiment on NCI-H23 was > 100 µM (inactive) throughout. Further, the GI50 in the experiment with UO-31, with SR, in the experiment with SK-MEL-2 and with Malme-3M was > 100 µM (inactive) in each case.
For the compound `N#CC(C#N)C(c1ccccc1)c1ccccc1`, the GI50 with M14 is > 100 µM (inactive); with SF-268, > 100 µM (inactive); in the experiment on SNB-19, > 100 µM (inactive); in the experiment with NCI-H522 it was > 100 µM (inactive); in the experiment on OVCAR-4, > 100 µM (inactive); in the experiment with HCT-15, over 100 µM. The GI50 in the experiment with NCI-H460, in the experiment on RXF 393, in the experiment on LOX IMVI, in the experiment on KM12, with CAKI-1 and in the experiment on UO-31 was > 100 µM (inactive) in each case. For the same compound, the GI50 in the experiment with SR, in the experiment on SK-MEL-2 and in the experiment with Malme-3M was > 100 µM (inactive) throughout.
For `O=C(/N=c1/[nH]/c(=N/C(=O)c2ccccc2)ss1)c1ccccc1`, the GI50 was 27.9 µM (inactive) with M14; 25.8 µM (inactive) in the experiment on SF-268; 33.5 µM (inactive) with SNB-19; 5.78 µM (inactive) in the experiment on NCI-H522; 38.1 µM (inactive) in the experiment with OVCAR-4; 21.4 µM with HCT-15. For the same compound, the GI50 in the experiment with HT-29 is 16.6 µM (inactive); in the experiment on NCI-H460, 16.6 µM (inactive); with RXF 393, 29.7 µM (inactive); in the experiment on LOX IMVI, 23.9 µM (inactive); in the experiment with KM12, 27.7 µM (inactive); in the experiment on CAKI-1, 30.3 µM (inactive). Also, the GI50 with NCI-H23 was 19.3 µM (inactive); in the experiment on UO-31, 18.5 µM (inactive); with SR, 24 µM (inactive); in the experiment with SK-MEL-2, 19.4 µM (inactive); in the experiment on Malme-3M, 9.89 µM (inactive).
As for `Cc1ccc(S(=O)(=O)SCc2ccccc2CSS(=O)(=O)c2ccc(C)cc2)cc1`, the GI50 in the experiment with M14 was 19.1 µM (inactive); in the experiment with SF-268, 36.6 µM (inactive); in the experiment with SNB-19, > 100 µM (inactive); in the experiment with NCI-H522, 10.9 µM (inactive); in the experiment on OVCAR-4 it was 18.7 µM (inactive); in the experiment with HCT-15 it was 19.5 µM. Moreover, the GI50 in the experiment on HT-29 is 22.7 µM (inactive); with NCI-H460, 42.2 µM (inactive); in the experiment with RXF 393 it was 15.7 µM (inactive); in the experiment with LOX IMVI it was 15.8 µM (inactive); with KM12 it was 59.7 µM (inactive); in the experiment on CAKI-1 it was 22.9 µM (inactive). Further, the GI50 in the experiment on NCI-H23 is 18.8 µM (inactive); in the experiment with UO-31, 78.3 µM (inactive); in the experiment with SR, 16.1 µM (inactive); in the experiment on Malme-3M, 24.2 µM (inactive).
For the compound `CCN(CC)C(=O)COc1ccc(Br)cc1Br`, the GI50 in the experiment on M14 is > 100 µM (inactive); in the experiment with SF-268 it was > 100 µM (inactive); in the experiment with SNB-19, > 100 µM (inactive); in the experiment with NCI-H522, 50.1 µM (inactive); in the experiment on OVCAR-4 it was > 100 µM (inactive); in the experiment with HCT-15, over 100 µM. For the same compound, the GI50 in the experiment with HT-29, in the experiment on NCI-H460, in the experiment with RXF 393, with LOX IMVI, in the experiment with KM12 and with CAKI-1 was > 100 µM (inactive) throughout. The GI50 in the experiment with NCI-H23 was 82.6 µM (inactive); in the experiment with UO-31, > 100 µM (inactive); in the experiment with SR, > 100 µM (inactive); with SK-MEL-2 it was > 100 µM (inactive); in the experiment with Malme-3M, > 100 µM (inactive).
For `CC(=O)c1cccc(N2COC(C)(C)c3nc4ccccc4n3C2)c1`, the GI50 in the experiment on M14 was > 100 µM (inactive); in the experiment on SF-268 it was > 100 µM (inactive); in the experiment on SNB-19, > 100 µM (inactive); in the experiment with NCI-H522, > 100 µM (inactive); in the experiment with OVCAR-4, 14.3 µM (inactive); in the experiment with HCT-15 it was over 100 µM. Also, the GI50 in the experiment with HT-29, with NCI-H460, with RXF 393, in the experiment on LOX IMVI, in the experiment with KM12 and in the experiment with NCI-H23 was > 100 µM (inactive) throughout. Also, the GI50 in the experiment on UO-31, in the experiment with SR, in the experiment with SK-MEL-2 and in the experiment with Malme-3M was > 100 µM (inactive) each time.
Take `CCOC(=O)C1=NC(c2ccccc2)(c2ccccc2)OC1=C(Cl)Cl`: the GI50 is 85.9 µM (inactive) in the experiment with M14; > 100 µM (inactive) in the experiment with SF-268; > 100 µM (inactive) in the experiment with SNB-19; 23.1 µM (inactive) with NCI-H522; 63 µM (inactive) in the experiment on OVCAR-4; 70.1 µM in the experiment with HCT-15. For the same compound, the GI50 is 32.4 µM (inactive) with HT-29; 70.6 µM (inactive) in the experiment with NCI-H460; 0.879 µM (active) with RXF 393; 46 µM (inactive) in the experiment with LOX IMVI; 94 µM (inactive) in the experiment on KM12; > 100 µM (inactive) in the experiment with CAKI-1. The GI50 with NCI-H23 was > 100 µM (inactive); in the experiment on UO-31, 65 µM (inactive); in the experiment on SR, 19.8 µM (inactive); in the experiment on Malme-3M, 40 µM (inactive).
For the compound `COc1cc(/C=C(\C#N)C(=O)c2ccccc2)ccc1OCc1ccccc1`, the GI50 was > 100 µM (inactive) in the experiment on M14; > 100 µM (inactive) in the experiment with SNB-19; > 100 µM (inactive) with NCI-H522; > 100 µM (inactive) with OVCAR-4; over 100 µM in the experiment with HCT-15; > 100 µM (inactive) with LOX IMVI. The GI50 with KM12, with CAKI-1, with NCI-H23, in the experiment with UO-31, in the experiment with SR and in the experiment on SK-MEL-2 was > 100 µM (inactive) throughout.

The values above are taken from ChEMBL document CHEMBL1201862, “PubChem BioAssay data set” (2004).
